Key:
[1] = tested on: sAPPα; assay: sAPPα ELISA, NT2 cells stably expressing APP751; type: cell-based, human; details: 24 h
Experimental: (5). To confirm the effect of THPI-244 on sAPPα levels in a neuronal cell line and by a tertiary assay, we exposed human Neuron-committed Teratocarcinoma cell line (NT2) stably expressing human APP751 to different concentrations of THPI-244 for 24 h and compared with that of Bryostatin, a classical activator of PKC known to stimulate sAPPα release. […] Levels of sAPPα were measured by ELISA using commercially available kit (cat #27734, IBL-America, Minneapolis, Minn., USA). […] Similar biphasic effect of Bryostatin was confirmed for Aβ42 also, measured again in NT2 stable cells by ELISA (cat #KHB3441, Life Technologies, Grand Island, N.Y., USA). Consistent with sAPPα, THPI-244 decreased Aβ42 levels dose-dependently starting from 50 nM (28%, p<0.05) to 2000 nM (64%, p<0.001) (n=4 independent experiments) (FIG. 1.7). Thus THPI-244 increased non-amyloidogenic processing of APP in NT2 cells.

[2] = tested on: PI3Kα; assay: Signal transduction analysis, PI3Kα; type: cell-based, human; details: NT2 cells
Description: (2). THPI-244 increases sAPPα by a novel mechanism of upregulating TrkA, a neurotrophic receptor. Therefore, in addition to increasing neuroprotective sAPPα and decreasing toxic Aβ, THPI-244 mediated increased TrkA protein levels are expected to provide neurotrophic support. Following the validation of the effect of THPI-244 in increasing sAPPα levels in CHO cells, NT2 cells, AD fibroblasts and human primary neurons, we were interested in identifying the molecular target of THPI-244 for unraveling the molecular mechanism by which it increases sAPPα which in turn can predict toxicity profile and whether to pursue long-term studies. Increased protein levels of both native and phosphorylated form of TrkA in NT2 cells and mouse brains by THPI-244 validated TrkA as the target.

[3] = tested on: fibroblasts derived directly from AD patients; assay: MTT cytotoxicity assay, AD fibroblasts; type: cell-based; details: 24 h exposure, human AD fibroblasts
Description: (4). Toxicity is another crucial limitation for successful drug development as evidenced by recent failure of γ-secretase inhibitors at the clinical trials due to cytotoxicity (Cole, S L and Vassar, R, 2007, Mol. Neurodeg. 2, 22-47; Doody R S, et al. 2013. N. Eng. J. Med. 369, 341-350). Therefore we measured cytotoxicity by very sensitive MTT assay as described previously (Hayes, C D., et al. 2013, BMC Medicine. 26, 11.81; 23; Hayes, C D., et al., 2012, PLoS One 7, e45841) in human primary neurons obtained from a commercial source (cat #1520, ScienCell, Carlsbad, Calif., USA) and fibroblasts derived directly from AD patients (cat #AG06263C, Coriell Institute Cell repository supported by NINDS, NIH). […] We directly used human neurons for toxicity studies so as to reduce the chances of future failure at a later stage due to toxicity.

[4] = tested on: Wild-type (WT) C57BL/6 mice; assay: Lethal dose (LD50) study in mice; type: in vivo, mouse
Description: Wild-type (WT) C57BL/6 mice aged about 6 months were used in the study. The compound THPI-244 was initially dissolved in 100% DMSO and then diluted to final 10% DMSO with phosphate buffered saline (PBS). […] Among these 6 mice, 3 mice received repeated injections (i.p) of compound THPI-244 for 5 days.

[5] = molecular target: TrkA (Homo sapiens, UniProt P04629); assay: TrkA protein level immunoblot, NT2 cells, with or without PKC inhibitor; type: cell-based; design: endogenous in cells; host or cells: NT2 cells (stably expressing APP751)
Sequence of TrkA (P04629 33-796): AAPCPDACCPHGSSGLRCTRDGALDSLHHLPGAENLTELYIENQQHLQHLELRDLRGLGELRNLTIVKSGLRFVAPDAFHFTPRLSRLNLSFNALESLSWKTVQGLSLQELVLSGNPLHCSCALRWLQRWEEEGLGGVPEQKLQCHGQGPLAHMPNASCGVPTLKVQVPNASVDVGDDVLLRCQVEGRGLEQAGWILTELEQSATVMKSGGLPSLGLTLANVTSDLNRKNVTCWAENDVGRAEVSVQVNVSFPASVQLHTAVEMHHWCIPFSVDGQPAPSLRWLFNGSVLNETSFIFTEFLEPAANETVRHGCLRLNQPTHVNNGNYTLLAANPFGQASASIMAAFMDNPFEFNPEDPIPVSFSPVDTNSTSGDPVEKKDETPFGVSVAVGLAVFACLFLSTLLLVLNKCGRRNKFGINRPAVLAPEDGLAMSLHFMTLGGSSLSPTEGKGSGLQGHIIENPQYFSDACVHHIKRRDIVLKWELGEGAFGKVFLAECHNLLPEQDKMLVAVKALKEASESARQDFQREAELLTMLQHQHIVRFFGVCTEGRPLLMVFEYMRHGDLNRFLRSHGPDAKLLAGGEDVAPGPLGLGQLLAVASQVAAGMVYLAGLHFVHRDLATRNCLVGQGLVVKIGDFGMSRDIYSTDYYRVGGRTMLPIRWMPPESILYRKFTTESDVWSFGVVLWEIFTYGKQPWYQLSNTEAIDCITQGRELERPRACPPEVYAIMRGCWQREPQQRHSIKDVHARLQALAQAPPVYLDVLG
Experimental: (3). THPI-244 increases TrkA receptor levels independent of protein kinase C (PKC). Next to clarify whether increased sAPPα levels depends on increased TrkA activation, NT2 cells were treated with THPI-244 with or without TrkA inhibitor (cat #GW 441756, Tocris Bioscience) at 50 nM final concentration. After 24 h, sAPPα levels were quantified from the conditioned medium by immunoblots. […] We next wanted to address whether increased TrkA protein levels by THPI-244 depends on PKC since PKC activators are well-known to induce sAPPα secretion (Etcheberringaray, R., et al., 2004, PNAS, 101, 11141-11146). NT2 cells were similarly treated with THPI-244 at 100 nM with or without PKC inhibitor (GF 109203, cat #0741, Tocris Bioscience) at 1.0 nM and TrkA protein levels were quantified by immunoblots as shown in FIG. 1.10 (right). […] Thus increased sAPPα level by THPI-244 is through upregulation of TrkA receptor independent of PKC.

[6] = tested on: sAPPα; assay: sAPPα ELISA, fibroblasts derived from AD patients; type: cell-based, human; details: 24 h
Experimental: (1). […] Therefore, we first used fibroblasts derived from AD patients (AG06263C, Coriell Cell repository, supported by NINDS/NIH) and exposed to THPI-244 for 24 h and measured sAPPα release by ELISA as done above for NT2 cells. […] We also confirmed dose-dependent effect of THPI-244 on sAPPα levels in human primary neurons transiently transfected with APP751 with Swedish mutation which is trafficked differently from WT APP and releases more sAPPα. Human neurons were grown on specially coated glass coverslips (cat #GG-18-PDL, NeuVitro, Germany). We could reproducibly achieve nearly 30% transfection efficiency using a nanoparticle based transfection reagent called Neuromag (cat #NM150299, OZ Biosciences, France).

[7] = Brain levels of compound after i.p. injection (BBB passage), LC-MS; type: in vivo, mouse
Experimental: (3). Since blood brain barrier (BBB) is the main obstacle for drug development for any CNS disorders, we first wanted to verify whether compound THPI-244 enters the brain. We followed protocols exactly as published previously from our laboratory (Hayes, C D et al., 2013, BMC Med. 26, 11.81). […] We generated a standard graph (FIG. 1.4 (middle)) to be used in the quantitation of THPI-244 in the brain after intraperitoneal (i.p.) injections at 0.2 mg/kg body weight.

In the case of `O=C(Cc1ccccc1)N[C@H](CNc1nc(CN2CCN(C(=O)Cc3ccccc3)CC2)cs1)c1ccccc1` [THPI-244], the “lowest concentration with significant increase of sAPPα” value [1] is reported as 50 nM, the “effect on PI3Kα pathway” value [2] is reported as “activation of PI3Kα” and the “lowest concentration with significant cytotoxicity” value [3] is reported as 50 µM. The lethality ([4]; 100 mg/kg i.p., 6 mice, monitored for 5 days) was “did not result in the death of any of the 6 mice”, the lethality ([4]; 200 mg/kg, single mouse) was “survived without visible ill effects” and the lethality ([4]; repeated i.p. injections for 5 days, 3 mice) was “None of the mice showed any lethal effect”. The TrkA protein level ([5]; THPI-244 100 nM) was 197%, the TrkA protein level ([5]; THPI-244 100 nM plus PKC inhibitor GF 109203 1.0 nM) was 192% and the “lowest concentration with significant increase of sAPPα” value [6] was 50 nM. The “time to maximum level in brain” value ([7]; 0.2 mg/kg i.p., mouse) was at most 5 min and the “amount remaining in brain” value ([7]; 240 min after 0.2 mg/kg i.p.) was “negligible amount”.

Reference: patent US9994536B2, “Compounds and methods of treating neurological disorders” (TORREY PINES INSTITUTE FOR MOLECULAR STUDIES, priority 2014, dated 2018)
